These results are taken from PubChem BioAssay AID743310 (Sanford-Burnham Center for Chemical Genomics, 2014).

For orientation: IC50 means the point on the concentration scale where inhibition reaches its midpoint.

Calls of active or inactive are those of the source.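 How the source made its calls: active means IC50 at or below 20 µM; inactive means the rest.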

This assay deals with Dual specificity protein phosphatase 3 (Homo sapiens) (UniProt P51452). In words: VHR1 phosphatase inhibition, selectivity check, SAR follow-up, selectivity assay for LMPTP inhibitor project, biochemical, fluorescence, OMFP substrate (AID 743310). To be noted: recombinant VHR, OMFP fluorogenic substrate, 50 min.
Dual specificity protein phosphatase 3 (Homo sapiens), sequence (P51452 whole entry, looked up): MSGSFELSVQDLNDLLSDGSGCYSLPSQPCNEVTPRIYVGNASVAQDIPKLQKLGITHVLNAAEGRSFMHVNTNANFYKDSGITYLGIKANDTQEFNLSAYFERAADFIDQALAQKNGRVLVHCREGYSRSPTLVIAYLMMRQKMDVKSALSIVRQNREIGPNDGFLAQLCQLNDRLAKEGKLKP
`Fc1ccc2nc(-c3ccccc3)cc(NCCCN3CCCCC3)c2c1`: the IC50 was > 80 µM (inactive).

On to `CC(C)Nc1nc(-c2ccccc2)nc2ccccc12`, for which the IC50 was > 80 µM (inactive).

For `CC(C)OCCCNc1nc(-c2ccccc2)nc2ccccc12`, the IC50 is > 80 µM (inactive).

On to `Cc1c(CCC(=O)O)c(=O)oc2c(C)c(OCc3ccccc3Cl)ccc12`, for which the half-maximal inhibitory concentration (IC50) is 5.21 µM.

Consider `Fc1ccccc1-c1nc(NCCCN2CCOCC2)c2ccccc2n1`, for which the IC50 was > 80 µM (inactive).

As for `c1ccc(-c2nc(N3CCCCC3)c3ccccc3n2)cc1`, the IC50 is > 80 µM (inactive).

For `CN(C)CCNc1cc(-c2ccccc2)nc2ccccc12`, the IC50 was > 80 µM (inactive).

With `c1ccc(-c2nc(NCCCN3CCCCC3)c3ccccc3n2)cc1`, the IC50 was > 80 µM (inactive).

For `c1ccc(-c2nc(NC3CCCCC3)c3ccccc3n2)cc1`, the IC50 was > 80 µM (inactive).

Regarding `CN1CCN(c2nc(-c3ccccc3)nc3ccccc23)CC1`, the IC50 is > 80 µM (inactive).

`CN(C)CCNc1nc(-c2ccccc2)nc2ccccc12`: the IC50 is > 80 µM (inactive).

Consider `CCN(CC)c1nc(-c2ccccc2)nc2ccccc12`, for which the IC50 was > 80 µM (inactive).

On to `Cc1cccc(-c2nc(NCCCN3CCOCC3)c3ccccc3n2)c1`, for which the IC50 is > 80 µM (inactive).

Regarding `COc1ccccc1-c1cc(NCCCN2CCCCC2)c2ccccc2n1`, the IC50 was > 80 µM (inactive).

For the compound `c1ccc(-c2cc(N3CCCCC3)c3ccccc3n2)cc1`, the IC50 is > 80 µM (inactive).

Turning to `c1ccc(-c2nc(NCCCn3ccnc3)c3ccccc3n2)cc1`, the IC50 was > 80 µM (inactive).

In the case of `Fc1cccc(-c2cc(NCCCN3CCCCC3)c3ccccc3n2)c1`, the IC50 is > 80 µM (inactive).

As to `c1ccc(-c2nc(N3CCOCC3)c3ccccc3n2)cc1`, the IC50 was > 80 µM (inactive).

Turning to `c1ccc(-c2nc(NCCN3CCOCC3)c3ccccc3n2)cc1`, the IC50 is > 80 µM (inactive).

For `c1ccc(-c2cc(NCCN3CCCCC3)c3ccccc3n2)cc1`, the IC50 was > 80 µM (inactive).

As to `Cc1ccc(-c2nc(NCCN3CCOCC3)c3ccccc3n2)cc1`, the IC50 was > 80 µM (inactive).

Consider `Brc1ccc2nc(-c3ccccc3)cc(NCCCN3CCCCC3)c2c1`, for which the IC50 was > 80 µM (inactive).

Turning to `c1ccc(-c2nc(N3CCSCC3)c3ccccc3n2)cc1`, the IC50 was > 80 µM (inactive).

`O=C(OCCNc1nc(-c2ccccc2)nc2ccccc12)c1cccnc1`: the IC50 was > 80 µM (inactive).

As for `Cc1ccc2nc(-c3ccccc3)cc(NCCCN3CCCCC3)c2c1`, the IC50 is > 80 µM (inactive).

In the case of `COc1ccccc1CNc1ncnc2ccsc12`, the IC50 is > 80 µM (inactive).

Turning to `c1ccc(-c2nc(NCCCN3CCOCC3)c3ccccc3n2)cc1`, the IC50 is > 80 µM (inactive).

For the compound `FC(F)(F)c1cccc(-c2cc(NCCCN3CCCCC3)c3ccccc3n2)c1`, the IC50 is > 80 µM (inactive).

With `COc1ccc(-c2cc(NCCCN3CCCCC3)c3ccccc3n2)cc1`, the IC50 was > 80 µM (inactive).

On to `c1ccc(-c2cc(SCCCN3CCCCC3)c3ccccc3n2)cc1`, for which the IC50 is > 80 µM (inactive).

For the compound `Fc1ccccc1-c1nc(NC2CCCC2)c2ccccc2n1`, the IC50 is > 80 µM (inactive).

With `CC1CCN(c2nc(-c3ccccc3)nc3ccccc23)CC1`, the IC50 is > 80 µM (inactive).

For the compound `c1ccc(-c2cc(NCCCN3CCOCC3)c3ccccc3n2)cc1`, the IC50 was > 80 µM (inactive).

Take `c1ccc(-c2nc(NCCN3CCCC3)c3ccccc3n2)cc1`: the IC50 is > 80 µM (inactive).

Consider `c1ccc2c(NCCCN3CCCCC3)cc(-c3ccncc3)nc2c1`, for which the IC50 was > 80 µM (inactive).

With `c1ccc(-c2cc(NCCN3CCCC3)c3ccccc3n2)cc1`, the IC50 is > 80 µM (inactive).

Regarding `CCCCNc1nc(-c2ccccc2)nc2ccccc12`, the IC50 is > 80 µM (inactive).

On to `CCc1nc(N)nc(N)c1-c1ccc(Cl)cc1`, for which the IC50 is > 80 µM (inactive).

As for `O=C(OCCNc1nc(-c2ccccc2)nc2ccccc12)c1ccncc1`, the IC50 was > 80 µM (inactive).

On to `c1ccc(-c2nc(NCCN3CCCCC3)c3ccccc3n2)cc1`, for which the IC50 was > 80 µM (inactive).

For the compound `Cc1ccc(-c2cc(NCCCN3CCCCC3)c3ccccc3n2)cc1`, the IC50 was > 80 µM (inactive).

Take `Clc1ccc(-c2cc(NCCCN3CCCCC3)c3ccccc3n2)cc1`: the IC50 was > 80 µM (inactive).

Turning to `COc1cc2nc(-c3ccccc3)cc(NCCCN3CCCCC3)c2cc1OC`, the IC50 was > 80 µM (inactive).

On to `Clc1cccc(-c2cc(NCCCN3CCCCC3)c3ccccc3n2)c1`, for which the IC50 was > 80 µM (inactive).

As to `CC(C)CNc1nc(-c2ccccc2)nc2ccccc12`, the IC50 is > 80 µM (inactive).

Turning to `c1ccc(-c2nc(NCc3cccnc3)c3ccccc3n2)cc1`, the IC50 was > 80 µM (inactive).

Take `c1ccc(-c2nc(N3CCCCCC3)c3ccccc3n2)cc1`: the IC50 was > 80 µM (inactive).

Turning to `c1ccc(-c2cc(NCCN3CCOCC3)c3ccccc3n2)cc1`, the IC50 is > 80 µM (inactive).

With `Clc1ccccc1-c1cc(NCCCN2CCCCC2)c2ccccc2n1`, the IC50 is > 80 µM (inactive).

On to `c1ccc(-c2nc(NC3CC3)c3ccccc3n2)cc1`, for which the IC50 is > 80 µM (inactive).

With `c1ccc(-c2cc(NCCCN3CCCCC3)c3ccccc3n2)cc1`, the IC50 is > 80 µM (inactive).

As for `c1ccc(-c2cc(OCCCN3CCCCC3)c3ccccc3n2)cc1`, the IC50 is > 80 µM (inactive).

For the compound `Cc1ccc(-c2nc(NCc3cccnc3)c3ccccc3n2)cc1`, the IC50 was > 80 µM (inactive).

Take `Clc1cccc(Cl)c1Cn1cnc(=NCc2ccco2)c2[nH]cnc21`: the IC50 was > 80 µM (inactive).

Consider `c1ccc(-c2nc(NC3CCCC3)c3ccccc3n2)cc1`, for which the IC50 was > 80 µM (inactive).

As for `Fc1ccc(-c2cc(NCCCN3CCCCC3)c3ccccc3n2)cc1`, the IC50 was > 80 µM (inactive).

As to `Nc1nc(N)c(Cc2ccc(Cl)cc2Cl)c(N)n1`, the IC50 was > 80 µM (inactive).

As for `c1ccc(-c2nc(N3CCCC3)c3ccccc3n2)cc1`, the IC50 is > 80 µM (inactive).

For `COc1cccc(-c2cc(NCCCN3CCCCC3)c3ccccc3n2)c1`, the IC50 was > 80 µM (inactive).
